Experiment: xn = mol fraction of the nth substance listed
Conditions: Liquid

CCO [ethanol] + O
mass density [kg/m3]
Conditions | 100 kPa | 10000 kPa | 20000 kPa | 30000 kPa | 40000 kPa
323.15 K, x1 = 0.003 | – | – | – | 999 | 1003.1
323.15 K, x1 = 0.0042 | – | – | – | 998 | 1002
323.15 K, x1 = 0.0082 | – | – | – | 996.5 | 1000.5
323.15 K, x1 = 0.0119 | – | – | – | 995.2 | 999.2
323.15 K, x1 = 0.0158 | – | – | – | 993 | 996.9
323.15 K, x1 = 0.0184 | – | – | – | 991.5 | 995.5
323.15 K, x1 = 0.0219 | – | – | – | 990.4 | 994.4
323.15 K, x1 = 0.0255 | – | – | – | 988.7 | 992.7
323.15 K, x1 = 0.0279 | – | – | – | 987.1 | 991.1
323.15 K, x1 = 0.0315 | – | – | – | 986.3 | 990.2
323.15 K, x1 = 0.0366 | – | – | – | 983.6 | 987.6
323.15 K, x1 = 0.0392 | – | – | – | 982.4 | 986.3
323.15 K, x1 = 0.0439 | – | – | – | 980.8 | 984.7
323.15 K, x1 = 0.0483 | – | – | – | 978.8 | 982.7
323.15 K, x1 = 0.0516 | – | – | – | 978 | 982
323.15 K, x1 = 0.0559 | – | – | – | 976.6 | 980.5
323.15 K, x1 = 0.06 | – | – | – | 975.1 | 979.1
323.15 K, x1 = 0.0652 | – | – | – | 973.1 | 977
323.15 K, x1 = 0.0679 | – | – | – | 972.3 | 976.3
323.15 K, x1 = 0.0722 | – | – | – | 970.5 | 974.4
323.15 K, x1 = 0.0801 | – | – | – | 967.4 | 971.4
323.15 K, x1 = 0.084 | – | – | – | 967 | 970.9
323.15 K, x1 = 0.0879 | – | – | – | 965.3 | 969.2
323.15 K, x1 = 0.0926 | – | – | – | 963.7 | 967.6
323.15 K, x1 = 0.0958 | – | – | – | 962.6 | 966.5
323.15 K, x1 = 0.1006 | – | – | – | 961 | 964.9
323.15 K, x1 = 0.1111 | – | – | – | 957.3 | 961.3
323.15 K, x1 = 0.1225 | – | – | 949.2 | 953.4 | 957.4
323.15 K, x1 = 0.1296 | – | – | 946.9 | 951.1 | 955.2
323.15 K, x1 = 0.1402 | – | – | 943.3 | 947.6 | 951.7
323.15 K, x1 = 0.151 | – | – | 939.7 | 944 | 948.2
323.15 K, x1 = 0.1601 | – | – | 936.7 | 941.1 | 945.3
323.15 K, x1 = 0.1703 | – | – | 933.3 | 937.7 | 942
323.15 K, x1 = 0.18 | – | – | 930.1 | 934.6 | 938.9
323.15 K, x1 = 0.1903 | – | – | 926.8 | 931.4 | 935.8
323.15 K, x1 = 0.1996 | – | – | 923.8 | 928.4 | 932.9
323.15 K, x1 = 0.2269 | – | – | 915.3 | 920.1 | 924.7
323.15 K, x1 = 0.2502 | – | – | 908.5 | 913.5 | 918.2
323.15 K, x1 = 0.2745 | – | – | 901.6 | 906.7 | 911.5
323.15 K, x1 = 0.3009 | – | – | 894.7 | 899.8 | 904.8
323.15 K, x1 = 0.35 | – | – | 882.1 | 887.5 | 892.7
323.15 K, x1 = 0.4034 | – | – | 869.8 | 875.5 | 881
323.15 K, x1 = 0.4501 | – | – | 859.7 | 865.7 | 871.3
323.15 K, x1 = 0.498 | – | – | 850.6 | 856.8 | 862.6
323.15 K, x1 = 0.5501 | – | – | 841.2 | 847.6 | 853.6
323.15 K, x1 = 0.5998 | – | – | 833.5 | 839.6 | 845.8
323.15 K, x1 = 0.6489 | – | – | 825.3 | 832.1 | 838.5
323.15 K, x1 = 0.6967 | – | – | 818.4 | 825.4 | 831.9
323.15 K, x1 = 0.7475 | – | – | 811.7 | 818.8 | 825.5
323.15 K, x1 = 0.7996 | – | – | 804.9 | 812.3 | 819.1
323.15 K, x1 = 0.8484 | – | – | 799.1 | 806.6 | 813.6
323.15 K, x1 = 0.8993 | – | – | 793.2 | 800.9 | 808
323.15 K, x1 = 0.9503 | – | – | 787.7 | 795.6 | 802.8
323.15 K, x1 = 1 | – | – | 782.3 | 790.3 | 797.7
348.15 K, x1 = 0.003 | 973.1 | 977.5 | 981.9 | 986.1 | 990.1
348.15 K, x1 = 0.0042 | 971.9 | 976.3 | 980.6 | 984.8 | 988.8
348.15 K, x1 = 0.0082 | 970.7 | 975 | 979.4 | 983.6 | 987.6
348.15 K, x1 = 0.0119 | 969.1 | 973.4 | 977.7 | 981.9 | 986
348.15 K, x1 = 0.0158 | 966.6 | 971 | 975.3 | 979.4 | 983.5
348.15 K, x1 = 0.0184 | 965.4 | 969.6 | 973.9 | 978.1 | 982.1
348.15 K, x1 = 0.0219 | 963.9 | 968.2 | 972.6 | 976.7 | 980.8
348.15 K, x1 = 0.0255 | 962 | 966.4 | 970.7 | 975 | 979
348.15 K, x1 = 0.0279 | 960.4 | 964.8 | 969.1 | 973.3 | 977.3
348.15 K, x1 = 0.0315 | 959.4 | 963.8 | 968 | 972.3 | 976.3
348.15 K, x1 = 0.0366 | 956.7 | 961 | 965.3 | 969.5 | 973.6
348.15 K, x1 = 0.0392 | 955.3 | 959.6 | 963.8 | 968.1 | 972.1
348.15 K, x1 = 0.0439 | 953.5 | 957.8 | 962.1 | 966.3 | 970.4
348.15 K, x1 = 0.0483 | 951.2 | 955.6 | 959.9 | 964.1 | 968.2
348.15 K, x1 = 0.0516 | 950.2 | 954.6 | 958.9 | 963.2 | 967.3
348.15 K, x1 = 0.0559 | 948.8 | 953.2 | 957.5 | 961.7 | 965.9
348.15 K, x1 = 0.06 | 946.9 | 951.3 | 955.8 | 960 | 964.1
348.15 K, x1 = 0.0652 | 944.8 | 949.1 | 953.5 | 957.8 | 961.9
348.15 K, x1 = 0.0679 | 943.7 | 948.2 | 952.5 | 956.8 | 960.9
348.15 K, x1 = 0.0722 | 941.5 | 946.1 | 950.4 | 954.7 | 958.9
348.15 K, x1 = 0.0801 | 938.1 | 942.6 | 947 | 951.3 | 955.6
348.15 K, x1 = 0.084 | 937.5 | 941.9 | 946.3 | 950.7 | 954.9
348.15 K, x1 = 0.0879 | 935.3 | 939.9 | 944.4 | 948.8 | 953
348.15 K, x1 = 0.0926 | 933.6 | 938.1 | 942.6 | 947 | 951.3
348.15 K, x1 = 0.0958 | 932.2 | 936.8 | 941.3 | 945.7 | 950
348.15 K, x1 = 0.1006 | 930.2 | 934.9 | 939.4 | 943.9 | 948.1
348.15 K, x1 = 0.1111 | 925.9 | 930.7 | 935.3 | 939.8 | 944.2
348.15 K, x1 = 0.1225 | 921.5 | 926.3 | 931.1 | 935.6 | 940
348.15 K, x1 = 0.1296 | 918.7 | 923.6 | 928.3 | 932.9 | 937.4
348.15 K, x1 = 0.1402 | 914.6 | 919.5 | 924.4 | 929.1 | 933.7
348.15 K, x1 = 0.151 | 910.4 | 915.4 | 920.3 | 925.1 | 929.7
348.15 K, x1 = 0.1601 | 906.9 | 912.1 | 917.1 | 922 | 926.6
348.15 K, x1 = 0.1703 | 903.1 | 908.4 | 913.5 | 918.4 | 923.1
348.15 K, x1 = 0.18 | 899.5 | 904.8 | 910 | 915 | 919.8
348.15 K, x1 = 0.1903 | 895.8 | 901.3 | 906.5 | 911.6 | 916.4
348.15 K, x1 = 0.1996 | 892.6 | 898.1 | 903.4 | 908.5 | 913.4
348.15 K, x1 = 0.2269 | 883.1 | 888.9 | 894.4 | 899.7 | 904.8
348.15 K, x1 = 0.2502 | 875.6 | 881.6 | 887.3 | 892.8 | 898.1
348.15 K, x1 = 0.2745 | 868 | 874.2 | 880.2 | 885.8 | 891.1
348.15 K, x1 = 0.3009 | 860.4 | 866.8 | 872.9 | 878.6 | 884.2
348.15 K, x1 = 0.35 | 846.7 | 853.6 | 860 | 866.2 | 872
348.15 K, x1 = 0.4034 | 833.4 | 840.7 | 847.5 | 854 | 860
348.15 K, x1 = 0.4501 | 822.7 | 830.3 | 837.4 | 844.2 | 850.5
348.15 K, x1 = 0.498 | 812.7 | 820.7 | 828.1 | 835.1 | 841.6
348.15 K, x1 = 0.5501 | 802.6 | 811 | 818.7 | 825.9 | 832.7
348.15 K, x1 = 0.5998 | 793.8 | 802.5 | 810.5 | 818 | 824.9
348.15 K, x1 = 0.6489 | 785.6 | 794.6 | 802.9 | 810.6 | 817.8
348.15 K, x1 = 0.6967 | 778.2 | 787.6 | 796.1 | 804 | 811.3
348.15 K, x1 = 0.7475 | 770.9 | 780.7 | 789.4 | 797.6 | 805.1
348.15 K, x1 = 0.7996 | 763.9 | 774 | 783 | 791.3 | 799
348.15 K, x1 = 0.8484 | 757.6 | 768 | 777.3 | 785.8 | 793.6
348.15 K, x1 = 0.8993 | 751.5 | 762.1 | 771.6 | 780.3 | 788.3
348.15 K, x1 = 0.9503 | 745.7 | 756.7 | 766.4 | 775.2 | 783.4
348.15 K, x1 = 1 | 739.4 | 751.2 | 761.2 | 770.3 | 778.6

— the NIST ThermoML archive (doi:10.1016/j.fluid.2004.11.019)
